One may read the IC50 as the concentration that inhibits the measured activity by half.

Results on four molecules are retold here after patent US20090124631A1, “Combination Therapy” (priority 2007, published 2009).

Experiment [1] deals with recombinant human HDAC enzymes. Description: HDAC isotype selectivity across recombinant HDAC enzymes. The experiment is classed as biochemical. The conditions noted are these: from Table 1. An excerpt:
(§1) cDNAs of human HDAC1-8 and 11 were generated by RT-PCR reactions using primers complementary to the 5′ and 3′ coding sequence of human HDAC gene sequences in GenBank. cDNAs corresponding to the full length human HDAC1, 2, 3 and 11 were cloned into pBlueBac4.5 vector (Invitrogen). The constructs were used to generate recombinant baculoviruses using the Bac-N-Blue™ DNA according to the manufacturer's instructions (Invitrogen). The recombinant HDAC1, 2, 3, 11 proteins produced harbor a FLAG tag at their C-termini. cDNAs encoding truncated versions of HDAC4, 5 and 7 encompassing their deacetylase domains were cloned into pDEST10 as an N-terminal hexahistidine fusion protein and recombinant baculoviruses were generated using the Bac-to-Bac™ Baculovirus expression system (Invitrogen). HDAC6 and 8 were cloned as full length N-terminally His-tagged protein. All HDAC proteins were expressed in insect Sf-9 cells (Spodoptera frugiperdai) upon infection with recombinant baculovirus. HDAC1 enzyme was purified from the Q-sepharose FF column (Amersham Pharmacia Biotech, Baie d'Urfe QC, Canada) followed by an anti-FLAG immunoaffinity column (Sigma). […] HDAC4, 5, 6, 7 and 8 were purified using either Ni-NTA resin (QIAGEN Mississauga ON, Canada) or His-Select resin (Sigma) with step washes and elution with different concentrations of imidazole in Buffer containing 25 mM Tris (or NaPO4) pH 8.0, 10% glycerol and 150 mM or 500 mM NaCl.
(§2) Boc-Lys(Ac)-AMC (for HDAC1, 2, 3, 6, and 8 enzymes), which was purchased from Bachem Biosciences Inc., (King of Prussia, Philadelphia) were added into enzyme-compound mixture and incubated at 37° C. For HDAC4, 5, 7 assays, Boc-Lys(TFA)-AMC, which was synthesized in house, was used as substrate and 0.1% BSA was added to the buffer. […] Reaction time was predetermined to ensure that reaction was linear for the incubation time. Reaction was stopped by adding a freshly prepared trypsin (1 mg/ml final concentration) with 1 μM TSA (Biomol) in assay buffer. After 30 minutes, fluorescence was measured using a fluorometer (SPECTRAMAX GeminiXS, Molecular Devices, Sunnylvale, Calif.).

For the next experiment, the target named is T1, HDAC3 (Homo sapiens, UniProt O15379).
T1 construct: cDNAs corresponding to the full length human HDAC1, 2, 3 and 11 were cloned into pBlueBac4.5 vector; FLAG (C); made in house; host or cells: Sf-9 insect cells (baculovirus)
T1 sequence (O15379 whole entry): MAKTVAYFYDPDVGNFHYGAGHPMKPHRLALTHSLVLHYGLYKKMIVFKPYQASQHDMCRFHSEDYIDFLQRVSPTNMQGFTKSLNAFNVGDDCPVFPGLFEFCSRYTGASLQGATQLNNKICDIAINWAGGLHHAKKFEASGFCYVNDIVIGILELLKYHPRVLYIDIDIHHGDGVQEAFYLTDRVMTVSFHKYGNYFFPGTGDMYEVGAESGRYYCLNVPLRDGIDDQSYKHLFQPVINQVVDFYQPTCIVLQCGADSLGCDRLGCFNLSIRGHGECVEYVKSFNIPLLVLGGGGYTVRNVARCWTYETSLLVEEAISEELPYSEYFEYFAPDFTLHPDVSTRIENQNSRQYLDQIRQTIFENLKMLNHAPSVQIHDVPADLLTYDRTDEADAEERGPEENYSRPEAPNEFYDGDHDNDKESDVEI
In words: Fluorescence-based HDAC enzyme assay, recombinant HDAC3. Type of experiment: biochemical. The conditions noted are these: recombinant human HDAC enzyme in vitro; read-out: IC50 (μM) HD3. The text has this:
cDNAs of human HDAC1-8 and 11 were generated by RT-PCR reactions using primers complementary to the 5′ and 3′ coding sequence of human HDAC gene sequences in GenBank. cDNAs corresponding to the full length human HDAC1, 2, 3 and 11 were cloned into pBlueBac4.5 vector (Invitrogen). The constructs were used to generate recombinant baculoviruses using the Bac-N-Blue™ DNA according to the manufacturer's instructions (Invitrogen). The recombinant HDAC1, 2, 3, 11 proteins produced harbor a FLAG tag at their C-termini. cDNAs encoding truncated versions of HDAC4, 5 and 7 encompassing their deacetylase domains were cloned into pDEST10 as an N-terminal hexahistidine fusion protein and recombinant baculoviruses were generated using the Bac-to-Bac™ Baculovirus expression system (Invitrogen). HDAC6 and 8 were cloned as full length N-terminally His-tagged protein. All HDAC proteins were expressed in insect Sf-9 cells (Spodoptera frugiperdai) upon infection with recombinant baculovirus. HDAC1 enzyme was purified from the Q-sepharose FF column (Amersham Pharmacia Biotech, Baie d'Urfe QC, Canada) followed by an anti-FLAG immunoaffinity column (Sigma). HDAC2, 3 and 11 were purified using Flag-antibody immunoaffinity purification. HDAC4, 5, 6, 7 and 8 were purified using either Ni-NTA resin (QIAGEN Mississauga ON, Canada) or His-Select resin (Sigma) with step washes and elution with different concentrations of imidazole in Buffer containing 25 mM Tris (or NaPO4) pH 8.0, 10% glycerol and 150 mM or 500 mM NaCl.
Recombinant HDAC enzymes were incubated with diluted compounds in assay buffer (25 mM Hepes, pH 8.0, 137 mM NaCl, 1 mM MgCl2 and 2.7 mM KCl) for 10 minutes at ambient temperatures in black 96-well plate. Boc-Lys(Ac)-AMC (for HDAC1, 2, 3, 6, and 8 enzymes), which was purchased from Bachem Biosciences Inc., (King of Prussia, Philadelphia) were added into enzyme-compound mixture and incubated at 37° C. […] After 30 minutes, fluorescence was measured using a fluorometer (SPECTRAMAX GeminiXS, Molecular Devices, Sunnylvale, Calif.). […]

For another experiment, the target named is T2, HDAC1 (Homo sapiens, UniProt Q13547).
T2 construct: cDNAs corresponding to the full length human HDAC1, 2, 3 and 11 were cloned into pBlueBac4.5 vector; FLAG (C); made in house; host or cells: Sf-9 insect cells (baculovirus)
T2 sequence (Q13547 whole entry): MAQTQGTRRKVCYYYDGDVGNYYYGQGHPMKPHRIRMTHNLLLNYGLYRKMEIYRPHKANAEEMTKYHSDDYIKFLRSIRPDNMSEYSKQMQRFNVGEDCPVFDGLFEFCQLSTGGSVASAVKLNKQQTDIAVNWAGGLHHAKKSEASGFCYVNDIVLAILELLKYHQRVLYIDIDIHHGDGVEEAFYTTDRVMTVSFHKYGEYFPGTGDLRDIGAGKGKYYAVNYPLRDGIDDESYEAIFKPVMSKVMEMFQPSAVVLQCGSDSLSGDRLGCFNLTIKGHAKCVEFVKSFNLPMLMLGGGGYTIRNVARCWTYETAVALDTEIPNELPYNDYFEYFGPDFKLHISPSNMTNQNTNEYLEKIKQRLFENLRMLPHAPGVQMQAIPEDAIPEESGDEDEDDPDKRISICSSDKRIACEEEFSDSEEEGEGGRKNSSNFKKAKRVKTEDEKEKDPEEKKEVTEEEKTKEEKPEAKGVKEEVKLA
In words: Fluorescence-based HDAC enzyme assay, recombinant HDAC1. Type of experiment: biochemical. The conditions noted are these: recombinant human HDAC enzyme in vitro; read-out: IC50 (μM) HD1.
Source text: as §1, §2

For a further experiment, the target named is T3, HDAC2 (Homo sapiens, UniProt Q92769).
T3 construct: cDNAs corresponding to the full length human HDAC1, 2, 3 and 11 were cloned into pBlueBac4.5 vector; FLAG (C); made in house; host or cells: Sf-9 insect cells (baculovirus)
T3 sequence (Q92769 whole entry): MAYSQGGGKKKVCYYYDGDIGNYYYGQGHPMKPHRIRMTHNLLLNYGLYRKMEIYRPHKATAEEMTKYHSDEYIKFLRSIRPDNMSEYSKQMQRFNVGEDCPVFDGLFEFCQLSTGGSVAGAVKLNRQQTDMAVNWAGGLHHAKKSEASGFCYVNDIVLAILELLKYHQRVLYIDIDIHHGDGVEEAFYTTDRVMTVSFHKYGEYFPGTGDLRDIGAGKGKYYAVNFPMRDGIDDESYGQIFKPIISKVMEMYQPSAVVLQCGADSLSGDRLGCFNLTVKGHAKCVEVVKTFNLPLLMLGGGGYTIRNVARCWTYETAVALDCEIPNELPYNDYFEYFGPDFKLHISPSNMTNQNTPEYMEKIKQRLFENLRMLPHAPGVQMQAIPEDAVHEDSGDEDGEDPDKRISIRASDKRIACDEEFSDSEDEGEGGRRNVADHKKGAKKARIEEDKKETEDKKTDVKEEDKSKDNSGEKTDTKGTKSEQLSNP
Description: Fluorescence-based HDAC enzyme assay, recombinant HDAC2. The experiment is classed as biochemical. The conditions noted are these: recombinant human HDAC enzyme in vitro; read-out: IC50 (μM) HD2.
Source text: as §1, §2

Experiment [2] relates to histone H3 acetylation in human bladder carcinoma T24 cells. In words: Cell-based ELISA for H3 acetylation. The method, then: (§3) Bladder carcinoma T24 cells were seeded in black plates with clear bottoms (Costar #3603) at 1×10^4 cells per well in a volume of 100 μl per well, and were allowed to settle for one day at 37° C. in a CO2 incubator. The cells were treated for 16 h with various concentrations of HDAC inhibitors. 3 h before the end of the treatment, Alamar Blue (BioSource) was added to monitor cell viability according to the manufacturer's instructions. At the end of the treatment time, Alamar Blue OD (at 570 nm and 600 nm) was recorded, then the cells were carefully washed in PBS, fixed in pre-chilled methanol for 10 min at −20° C., washed again twice in PBS, and blocked in PBS containing 0.1% Triton X-100 and 1% BSA for a minimum of 30 min. For H3 acetylation, rabbit-anti-acetyl-H3 (Upstate #06-599) was used as primary antibody at a dilution of 1:1000 for 45 min; the secondary antibody was HRP-coupled goat-anti-rabbit (Sigma #A-0545), used at 1:8000 for 45 min. For tubulin acetylation, the primary antibody was mouse anti-acetyl-tubulin (Sigma #T-6793, 1:2000, 45 min) while the secondary was HRP-coupled goat-anti-mouse antibody (Sigma #A-2304, 1:8000, 45 min). All antibodies were diluted in blocking buffer, and the cells were washed in blocking buffer following each antibody incubation. […] The fluorescent signal for acetylation was normalized by dividing with the viability data obtained from Alamar Blue. EC50 was defined as the concentration of compound which gave a signal half-way between the basal (untreated) level and the maximum level generated by high doses of the HDAC pan-inhibitor NVP-LAQ-824.
(In general: In an ELISA, binding on a coated surface is turned into a signal by an enzyme label.)

In experiment [3] the test system is tubulin acetylation in human bladder carcinoma T24 cells. In words: Cell-based ELISA for tubulin acetylation. On the procedure:
as §3

Experiment [4] relates to VEGF expression in DU145 cells. Description: VEGF transcription in Du145 cells in vitro. The experiment is classed as cell-based, human. As to conditions: 24 hour treatment. On the procedure:
(§4) Human prostate cancer Du145 cells were exposed to Cpd A or SAHA (3 microM) for 24 hours. Total RNA was collected by Isogen (Nippongene, Tokyo, Japan) and reverse-transcribed to cDNA by ExScript® RT reagent Kit (TAKARA, Kyoto, Japan). The expression level of bFGF mRNA was detected by ABI7700 analyzer using probe/primer pre-mixture reagent (ABI, Cat# Hs00266645_m1, CA, USA) and TaqMan® Universal PCR Master Mix (ABI, Cat# 430-4437) as described in the ABI's protocol. The expression level of VEGF mRNA was detected in a similar manner using the appropriate probe/primer reagents.

Experiment [5] deals with TSP-1 expression in cancer cells (Du145, H460, A549). Description: TSP-1 transcription in cancer cells in vitro. The experiment is classed as cell-based, human. The conditions noted are these: over time, 3 microM, 24 hours. On the procedure:
Cells were exposed by Cpd A or SAHA (3 microM) for 24 hours. Total RNA was collected by Isogen (Nippongene, Tokyo, Japan) and reverse-transcribed to cDNA by ExScript® RT reagent Kit (TAKARA, Kyoto, Japan). The expression level of TSP-1 mRNA was detected by ABI7700 analyzer using a probe/primer pre-mixture reagent (ABI, Cat#, CA, USA) and TaqMan® Universal PCR Master Mix (ABI, Cat# 430-4437) as described in the ABI's protocol.

For experiment [6], the system named is human H460 non-small cell lung tumor, Du145 prostate tumor, TSU-Pr1 prostate tumor, and AZ521 gastric tumor xenograft. In words: Xenograft combination studies with taxol (Example 15). The experiment is classed as in vivo, mouse. The conditions noted are these: oral administration, nude mice with human lung, prostate and gastric tumors. The method, then:
(§5) Antitumor studies were done using human H460 non-small cell lung tumor, Du145 prostate tumor, TSU-Pr1 prostate tumor, and AZ521 gastric tumor xenograft model in male BALBc/A nude mice (from Japan Crea Inc., Japan). Male nude mice were used at age 8-10 weeks. Human carcinoma cells were injected subcutaneously in the animal flank and allowed to form solid tumors. Tumor fragments (about 2 mm^3 fragments) were then removed and implanted subcutaneously through a small surgical incision to the right flank of other animals. […] Tumor volumes and gross body weight of animals were monitored twice weekly for up to 2 weeks for AZ-521 and TSU-Pr1, or 4 weeks for H460 and Du145 xenografts. Each experimental group contained 6 animals.
Background: Xenograft models place foreign cells or tissue in a host animal.

The next experiment relates to H460 (NSCLC) xenografts. In words: H460 (NSCLC) xenograft, oral HDAC inhibitor with taxol. Type of experiment: in vivo, mouse. The conditions noted are these: Compound A 100 mg/kg or SAHA 120 mg/kg with taxol 60 mg/kg. On the procedure: as §5
Experiment [7] has as its system bFGF transcription in human prostate cancer Du145 cells. Description: bFGF transcription in Du145 cells in vitro. The conditions noted are these: 3 μM, 24 hour treatment. Type of experiment: cell-based. The method, then:
as §4

In experiment [8] the test system is mouse endothelial MS-1 cells. In words: Growth inhibition of MS-1 cells by taxol with recombinant TSP-1. As to conditions: recombinant TSP1 10 ug/ml, 72 hour. Type of experiment: cell-based. The method, then:
Mouse endothelial MS-1 cells were seeded into 96 well-plate and incubated in 5% CO2 incubator for 24 hours. Taxol at various concentrations was added into cell culture and 6 hours later media were replaced with fresh media containing recombinant TSP1 (10 ug/ml) but without taxol. After 72 hour incubation, the growth inhibitory effect was determined by crystal violet staining.

`O=C(Nc1ccccc1)c1ccc(CNc2nccc(-c3cccnc3)n2)cc1` [Compound C]: the HDAC isotype selectivity entry in [1] is “inactive”. Moreover, the IC50 at HDAC3, at HDAC1 and at HDAC2 was over 10 µM each time.
Take `O=C(/C=C/c1ccc(CN(CCO)CCc2c[nH]c3ccccc23)cc1)NO` [NVP-LAQ824]: the “histone H3 acetylation” value in [2] was “Nonselective effect”. The tubulin acetylation entry in experiment [3] was “Nonselective effect”.
Take `O=C(CCCCCCC(=O)Nc1ccccc1)NO` [SAHA, reference compound]: in experiment [4], the VEGF expression entry is recorded as “Reduction”. Also, the TSP-1 expression result in [5] was “Induction”. Further, the “antitumor activity of taxol” value in experiment [6] is on record as “Potentiation”. Further, the “tumor response to combination therapy with taxol” value in the experiment on H460 (NSCLC) xenografts is “tumor regression”. In [2], the “histone H3 acetylation” value is “Nonselective effect”. Besides, the tubulin acetylation result in experiment [3] is given as “Nonselective effect”. The bFGF transcription entry in experiment [7] is “Reduction”.
For “Recombinant TSP-1: recombinant thrombospondin-1, agonist of TSP1 receptor”, in [8], the “proapoptotic effect of taxol” value is given as “Potentiates”.
